Measured values as given in ChEMBL document CHEMBL2203096, “Recent advances in hypoxia-inducible factor (HIF)-1 inhibitors” (Eur J Med Chem, 2012).
Each block holds one compound with its values, some of them ahead of it.

Key:
[1] = target: T1, Hypoxia-inducible factor 1-alpha (Homo sapiens, UniProt Q16665); experiment: Inhibition of HIF-1alpha transcriptional co-activator p300 interaction
[2] = target: T1, Hypoxia-inducible factor 1-alpha; experiment: Inhibition of HIF-1alpha-mediated VEGF secretion in human Hep3b cells by ELISA; assay type: cell-based
[3] = target: T1, Hypoxia-inducible factor 1-alpha; experiment: Inhibition of HIF-1alpha-mediated VEGF expression in human Hep3b cells by luciferase reporter gene assay; assay type: cell-based
[4] = Metabolic stability in rat Hepatocyte assessed as compound remaining at 1 umol/L after 2 hrs by RP-HPLC analysis; assay type: ADME, cell-based; settings: hepatocytes, read-out: Stability
[5] = Metabolic stability in human Hepatocyte assessed as compound remaining at 1 umol/L after 2 hrs by RP-HPLC analysis; assay type: ADME, cell-based; settings: hepatocytes, read-out: Stability
[6] = Antitumor activity against human Hep3B cells xenografted in nude mouse assessed as reduction in tumor size at 10 to 30 mg/kg/day, ip for 2 weeks (reference value: 900 mm3); assay type: functional, Hep 3B2; settings: route intraperitoneal
[7] = target: T1, Hypoxia-inducible factor 1-alpha; experiment: Inhibition of HIF-1alpha in human HCT116 cells under hypoxia condition by HRE-luciferase reporter gene assay; assay type: cell-based, HCT-116
[8] = Apparent permeability across human Caco2 cells at 20 uM; assay type: ADME, cell-based; settings: Caco-2
[9] = target: T1, Hypoxia-inducible factor 1-alpha; experiment: Inhibition of HIF-1alpha in human LN229 cells under hypoxia condition by HRE-luciferase reporter gene assay; assay type: cell-based
Nucleic Acid = experiment: Binding affinity to HIF-1 5'-CGTG-3' DNA sequence in human U251 cells assessed as inhibition of HRE-mediated reporter activation; assay type: cell-based; settings: u-251
[10] = Apparent permeability across human Caco2 cells at 10 uM; assay type: ADME, cell-based; settings: Caco-2
Mus musculus = experiment: Toxicity in human HCT116 cells xenografted mouse assessed as decrease in body weight at 30 mg/kg, iv; assay type: organism-based, HCT-116; parameters: dose 30 mg/kg, route intravenous; scale not given: the % may be the effect or the level left; settings: in vivo
HCT-116 = experiment: Antitumor activity against human HCT116 cells xenografted in mouse assessed as inhibition of tumor growth at 30 mg/kg, iv; assay type: functional; settings: read-out: TGI
[11] = Apparent permeability across human Caco2 cells at 5 uM; assay type: ADME, cell-based; settings: Caco-2
MDA-MB-435 = experiment: Antitumor activity against human MDA-MB-435 cells xenografted in nude mouse assessed as inhibition of tumor growth at 20 to 50 mg/kg, qd for 5 weeks; assay type: functional; settings: dose mg/kg 20-50
[12] = Antitumor activity against human […] cells xenografted in athymic nude mice assessed as reduction of tumor size at 20 mg/kg, qd; assay type: functional; parameters: scale not given: the % may be the effect or the level left

T1 sequence (Q16665 whole entry): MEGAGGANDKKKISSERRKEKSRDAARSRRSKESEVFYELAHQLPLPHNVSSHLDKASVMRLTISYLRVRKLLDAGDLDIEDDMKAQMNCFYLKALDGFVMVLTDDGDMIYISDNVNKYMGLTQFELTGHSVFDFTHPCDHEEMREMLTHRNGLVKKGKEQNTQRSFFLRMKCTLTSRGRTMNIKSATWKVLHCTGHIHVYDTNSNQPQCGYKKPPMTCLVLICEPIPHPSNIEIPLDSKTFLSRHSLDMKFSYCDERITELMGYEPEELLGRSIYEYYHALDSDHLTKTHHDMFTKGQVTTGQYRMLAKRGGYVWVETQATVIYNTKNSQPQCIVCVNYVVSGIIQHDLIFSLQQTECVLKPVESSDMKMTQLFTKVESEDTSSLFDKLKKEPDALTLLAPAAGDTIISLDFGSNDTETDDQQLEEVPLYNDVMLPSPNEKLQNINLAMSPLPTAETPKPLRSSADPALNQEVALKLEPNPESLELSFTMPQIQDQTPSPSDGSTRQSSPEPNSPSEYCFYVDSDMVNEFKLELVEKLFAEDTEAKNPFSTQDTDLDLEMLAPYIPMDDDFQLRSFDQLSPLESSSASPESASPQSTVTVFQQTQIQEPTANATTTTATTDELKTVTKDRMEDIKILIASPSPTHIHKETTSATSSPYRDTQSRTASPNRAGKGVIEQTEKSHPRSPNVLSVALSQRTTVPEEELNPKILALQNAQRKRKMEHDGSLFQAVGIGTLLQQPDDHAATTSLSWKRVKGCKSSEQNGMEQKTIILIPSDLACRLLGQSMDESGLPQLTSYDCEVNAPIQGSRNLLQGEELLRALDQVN

remaining at 2 h, 1 µM [4]: > 65% | remaining at 2 h, 1 µM [5]: > 65%
SMILES: COc1cc2c(cc1C(N)=O)CC[C@@H]1[C@@H]2CC[C@]2(C)CCC[C@@H]12

IC50 [7]: 0.003 µM
SMILES: Cc1ccc(Cn2nc(-c3nc4ccc(-c5ccc(Cl)cc5)cc4[nH]3)cc2C)cc1

Papp at 20 µM [8]: 6 nm/s
SMILES: CNC(=C[N+](=O)[O-])NCCSCc1ccc(CN(C)C)o1 [RANITIDINE]

IC50 [9]: 7.5 µM
SMILES: COc1c(C(C2CCCCC2)n2cnc3c(Cl)cccc32)ccc2c1C=CC(C)(C)O2 (centres undefined)

EC50 (Nucleic Acid): 0.0012 µM
SMILES: CS[C@H]1SC[C@H]2C(=O)N(C)[C@@H](C(C)C)C(=O)OC[C@@H](NC(=O)c3cnc4ccccc4n3)C(=O)N[C@@H](C)C(=O)N(C)[C@@H]1C(=O)N(C)[C@@H](C(C)C)C(=O)OC[C@@H](NC(=O)c1cnc3ccccc3n1)C(=O)N[C@@H](C)C(=O)N2C [ECHINOMYCIN]

Papp at 10 µM [10]: 272 nm/s
SMILES: COCCc1ccc(OCC(O)CNC(C)C)cc1 (centres undefined) [METOPROLOL]

Papp at 5 µM [11]: 229 nm/s
SMILES: O=C(COc1ccc(C23CC4CC(CC(C4)C2)C3)cc1)Nc1cc(C(=O)NCCCn2ccnc2)ccn1
Activity (Mus musculus): 92.7% | inhibition in vivo at 30 mg/kg (HCT-116): 51.3%

Continued, compound first:

SMILES: CN1C(=O)[C@@]23C[C@]4([C@]56C[C@@]78SS[C@@](CO)(C(=O)N7[C@H]5Nc5ccccc56)N(C)C8=O)c5ccccc5N[C@@H]4N2C(=O)[C@]1(CO)SS3 [CHAETOCIN]
IC50 [1]: 12.5 µM | IC50 [2]: 0.1 µM | IC50 [3]: 0.04 µM

SMILES: Cn1c(CO)ccc1-c1nn(Cc2ccccc2)c2ccccc12
Activity [6]: 400 mm3

SMILES: OCc1ccc(-c2nn(Cc3ccccc3)c3ccccc23)o1
Activity [6]: 400 mm3

SMILES: COc1cc2c(cc1O)CC[C@@H]1[C@@H]2CC[C@]2(C)[C@@H](O)CC[C@@H]12 [2-METHOXYESTRADIOL]
remaining at 2 h, 1 µM [4]: > 65% | remaining at 2 h, 1 µM [5]: > 65%

SMILES: COC(=O)c1ccc2[nH]c(COc3ccc(C45CC6CC(CC(C6)C4)C5)cc3)nc2c1
TGI (MDA-MB-435): 58.6%

SMILES: COC(=O)c1ccc(O)c(NC(=O)COc2ccc(C34CC5CC(CC(C5)C3)C4)cc2)c1
Activity [12]: 53.6%
